Here are results for 13 molecules from PubChem BioAssay (NCI).

Test systems include NCI-H23 lung; KM12 colon; NCI-H226 lung; CCRF-CEM leukemia; HL-60(TB) leukemia; SF-539 CNS; SN12C renal; TK-10 renal; ACHN renal; OVCAR-5 ovarian.
Experiment in all cases: NCI anticancer screen, dose series, 48 h

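Following 48 hours of exposure in 96-well plates, responses at five concentrations were used to interpolate endpoints linearly. Here, GI50 denotes the concentration required for 50% inhibition of growth. Definition used: TGI = concentration required for complete inhibition of growth.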

As to `COc1ccc(S(=O)(=O)N/N=C/C(=O)O)cc1`, the TGI with NCI-H23 lung is 867 µM; in the assay on KM12 colon, more than 1170 µM; in the assay with NCI-H226 lung, more than 1220 µM; in the assay on CCRF-CEM leukemia it was 712 µM; in the assay with HL-60(TB) leukemia it was 463 µM; in the assay with SF-539 CNS, 1080 µM. Moreover, the TGI was 1140 µM in the assay on SN12C renal, more than 1250 µM in the assay with TK-10 renal, 970 µM with ACHN renal and more than 1150 µM with OVCAR-5 ovarian.
On to `Cc1ccc(NCSc2ccc(Cl)cc2)cc1`, for which the GI50 in the assay with NCI-H23 lung is 63.4 µM; in the assay on KM12 colon it was 9.91 µM; in the assay on NCI-H226 lung it was 44.7 µM; in the assay with CCRF-CEM leukemia it was 995 nM; in the assay on HL-60(TB) leukemia, 2450 nM; in the assay on SF-539 CNS, 22900 nM. The GI50 was 7.01 µM in the assay with SN12C renal, 51.8 µM in the assay with TK-10 renal, more than 100 µM with ACHN renal and more than 100 µM with OVCAR-5 ovarian. In addition, the TGI in the assay on NCI-H23 lung, with KM12 colon, in the assay with NCI-H226 lung, in the assay on CCRF-CEM leukemia, in the assay with HL-60(TB) leukemia and with SF-539 CNS was more than 100 µM in each case. The TGI with SN12C renal, in the assay on TK-10 renal, in the assay on ACHN renal and with OVCAR-5 ovarian was more than 100 µM in each case.
Consider `Clc1ccc2c(Cl)ncnc2c1`, for which the TGI with NCI-H23 lung, in the assay on KM12 colon, in the assay on NCI-H226 lung, with CCRF-CEM leukemia, in the assay with HL-60(TB) leukemia and with SF-539 CNS was more than 100 µM each time. The TGI in the assay on SN12C renal, in the assay on TK-10 renal, in the assay with ACHN renal and in the assay on OVCAR-5 ovarian was more than 100 µM throughout.
`Cc1ccc(C2=Nc3c(N)ncnc3NC(c3cccc(Nc4ccnc5cc(C(F)(F)F)ccc45)c3)C2)cc1` (stereo not given): the GI50 in the assay on NCI-H23 lung was 3.6 µM; in the assay on KM12 colon, 3.26 µM; with NCI-H226 lung, 15.2 µM; with CCRF-CEM leukemia it was 3850 nM; in the assay with HL-60(TB) leukemia, 2950 nM; in the assay on SF-539 CNS, 2680 nM. Besides, the GI50 was 4.77 µM with SN12C renal, 6.89 µM in the assay on TK-10 renal, 4.69 µM with ACHN renal and 4.96 µM in the assay on OVCAR-5 ovarian. The TGI was 16.7 µM in the assay with NCI-H23 lung; 13.3 µM with KM12 colon; more than 100 µM in the assay with NCI-H226 lung; more than 100 µM in the assay on CCRF-CEM leukemia; 74.7 µM with HL-60(TB) leukemia; 9.26 µM in the assay on SF-539 CNS. For the same molecule, the TGI with SN12C renal was more than 100 µM; in the assay on TK-10 renal, 80.7 µM; in the assay on ACHN renal it was more than 100 µM; in the assay with OVCAR-5 ovarian, more than 100 µM.
Take `O=C1OC(c2ccc(O)cc2)(c2ccc(O)cc2)c2cccc3cccc1c23`: the GI50 with NCI-H23 lung was 17.8 µM; with KM12 colon, 10.5 µM; in the assay on NCI-H226 lung it was 17.6 µM; in the assay with CCRF-CEM leukemia it was 19800 nM; with HL-60(TB) leukemia, 18000 nM; with SF-539 CNS it was 15200 nM. In addition, the GI50 in the assay on SN12C renal was 12.7 µM; with TK-10 renal, 18 µM; in the assay on ACHN renal it was 14.3 µM; with OVCAR-5 ovarian, 16.5 µM. Besides, the TGI in the assay with NCI-H23 lung is 37.2 µM; in the assay with KM12 colon it was 25.2 µM; in the assay with NCI-H226 lung it was 44.7 µM; with CCRF-CEM leukemia it was 48.4 µM; with HL-60(TB) leukemia it was 45.5 µM; with SF-539 CNS it was 29 µM. Moreover, the TGI is 38.4 µM in the assay with SN12C renal, 34 µM in the assay with TK-10 renal, 27.9 µM with ACHN renal and 31.7 µM in the assay with OVCAR-5 ovarian.
Consider `COc1cc(C2C3=C(COC3=O)N(CCO)c3cc4c(cc32)CCC4)cc(OC)c1O` (stereo not given), for which the GI50 in the assay with NCI-H23 lung is 0.402 µM; in the assay with KM12 colon, 0.121 µM; in the assay with NCI-H226 lung it was 3.75 µM; with CCRF-CEM leukemia it was 1210 nM; in the assay with HL-60(TB) leukemia it was 87.4 nM; in the assay with SF-539 CNS it was 136 nM. In addition, the GI50 in the assay with SN12C renal is 0.499 µM; with TK-10 renal, more than 32.5 µM; in the assay with ACHN renal it was 0.706 µM; with OVCAR-5 ovarian, 3.18 µM. The TGI is more than 32.5 µM in the assay on NCI-H23 lung; 5.52 µM in the assay with KM12 colon; more than 32.5 µM in the assay with NCI-H226 lung; more than 32.5 µM in the assay on CCRF-CEM leukemia; 0.448 µM with HL-60(TB) leukemia; more than 32.5 µM in the assay on SF-539 CNS. Besides, the TGI in the assay on SN12C renal, with TK-10 renal, with ACHN renal and in the assay with OVCAR-5 ovarian was more than 32.5 µM throughout.
In the case of `CC(C)OP(=O)(CP(=O)(OC(C)C)OC(C)C)OC(C)C.[CH3][Sn]([Br])([Br])[Br]`, the GI50 is more than 100 µM with NCI-H23 lung; more than 100 µM in the assay on KM12 colon; more than 100 µM with NCI-H226 lung; more than 100000 nM in the assay on CCRF-CEM leukemia; more than 100000 nM with HL-60(TB) leukemia; more than 100000 nM in the assay on SF-539 CNS. For the same molecule, the GI50 in the assay on SN12C renal, with TK-10 renal, with ACHN renal and with OVCAR-5 ovarian was more than 100 µM in each case. Besides, the TGI in the assay with NCI-H23 lung, in the assay on KM12 colon, in the assay with NCI-H226 lung, in the assay on CCRF-CEM leukemia, in the assay with HL-60(TB) leukemia and in the assay with SF-539 CNS was more than 100 µM each time. Moreover, the TGI with SN12C renal, in the assay with TK-10 renal, with ACHN renal and with OVCAR-5 ovarian was more than 100 µM throughout.
On to `CC1(CC(=O)O)OC2CCCCCC2O1` (stereo not given) (tested in a mixture with another compound), for which the TGI in the assay with NCI-H23 lung was more than 100 µM; in the assay with KM12 colon it was more than 100 µM; with NCI-H226 lung it was more than 100 µM; in the assay with CCRF-CEM leukemia, 84.5 µM; in the assay with HL-60(TB) leukemia it was more than 100 µM; in the assay with SF-539 CNS, more than 100 µM. Further, the TGI with SN12C renal, with TK-10 renal, with ACHN renal and in the assay with OVCAR-5 ovarian was more than 100 µM each time.
Take `O=c1[nH]c(=O)n(C2CC(O)C(CO)O2)cc1C#Cc1ccc(C(F)(F)F)cc1` (stereo not given): the TGI with NCI-H23 lung, with KM12 colon, in the assay with NCI-H226 lung, in the assay with CCRF-CEM leukemia, in the assay with HL-60(TB) leukemia and with SF-539 CNS was more than 100 µM in each case. Besides, the TGI in the assay with SN12C renal, in the assay with TK-10 renal, with ACHN renal and in the assay on OVCAR-5 ovarian was more than 100 µM each time.
Regarding `O=C(Cc1nc2ccc(C(=O)c3ccccc3)cc2[nH]c1=O)C(=O)Nc1ccccc1[N+](=O)[O-]`, the TGI with NCI-H23 lung, in the assay with KM12 colon, with NCI-H226 lung, with CCRF-CEM leukemia, with HL-60(TB) leukemia and in the assay with SF-539 CNS was more than 100 µM each time. In addition, the TGI in the assay with SN12C renal, in the assay with TK-10 renal, in the assay with ACHN renal and in the assay with OVCAR-5 ovarian was more than 100 µM each time.
In the case of `O=C(N[C@@H]1CCCc2ccccc21)[C@H](CCC(=O)N1CCN(C2CCCCC2)CC1)N1C(=O)[C@@H](N2C(=O)OC[C@@H]2c2ccccc2)[C@H]1/C=C/c1ccccc1`, the GI50 with NCI-H23 lung was 3.7 µM; in the assay with KM12 colon, 2.62 µM; with NCI-H226 lung, 4.29 µM; with CCRF-CEM leukemia, 2830 nM; in the assay on HL-60(TB) leukemia, 2100 nM; with SF-539 CNS, 1740 nM. Besides, the GI50 was 3.72 µM in the assay with SN12C renal, 2.02 µM with TK-10 renal, 2.78 µM with ACHN renal and 4.01 µM in the assay on OVCAR-5 ovarian. Moreover, the TGI in the assay on NCI-H23 lung was determined as 19.7 µM; with KM12 colon, 11.6 µM; in the assay on NCI-H226 lung it was 18.4 µM; in the assay with CCRF-CEM leukemia, 8.87 µM; with HL-60(TB) leukemia, 5.71 µM; in the assay on SF-539 CNS, 3.42 µM. Further, the TGI came out at 27.3 µM in the assay on SN12C renal, 6.01 µM in the assay on TK-10 renal, 22.1 µM in the assay on ACHN renal and 47.5 µM in the assay with OVCAR-5 ovarian.
As to `CC1(C)N=C(N)N=C(N)N1c1ccc(OCC(=O)Nc2cccc(S(=O)(=O)F)c2)c(Cl)c1`, the TGI with NCI-H23 lung was more than 45.4 µM; in the assay with KM12 colon it was more than 95 µM; in the assay with NCI-H226 lung, 77.2 µM; with CCRF-CEM leukemia, more than 100 µM; with HL-60(TB) leukemia it was more than 100 µM; with SF-539 CNS, more than 100 µM. Also, the TGI is more than 100 µM in the assay on SN12C renal, more than 44.4 µM in the assay with TK-10 renal, more than 100 µM with ACHN renal and more than 100 µM with OVCAR-5 ovarian.
In the case of `COC(=O)[C@H](Cc1ccccc1)NC(=O)c1csc([C@@H](C[C@H](C(C)C)N(C)C(=O)[C@@H](NC(=O)[C@H]2CCCCN2C)C2CC2)OC(C)=O)n1`, the GI50 with NCI-H23 lung was 0.146 µM; in the assay on KM12 colon it was 0.0844 µM; with NCI-H226 lung it was 2.59 µM; in the assay on CCRF-CEM leukemia, 21 nM; in the assay on HL-60(TB) leukemia, 13.7 nM; in the assay with SF-539 CNS, 37.6 nM. In addition, the GI50 was 0.103 µM in the assay on SN12C renal, 0.473 µM in the assay with TK-10 renal, 0.15 µM with ACHN renal and 0.316 µM in the assay with OVCAR-5 ovarian. Besides, the TGI in the assay with NCI-H23 lung was more than 25 µM; in the assay on KM12 colon, more than 25 µM; with NCI-H226 lung, more than 25 µM; with CCRF-CEM leukemia it was more than 25 µM; in the assay with HL-60(TB) leukemia, 0.193 µM; in the assay with SF-539 CNS it was 0.194 µM. Besides, the TGI in the assay on SN12C renal, in the assay with TK-10 renal, in the assay with ACHN renal and with OVCAR-5 ovarian was more than 25 µM each time.
